Experimental data reported in US6608086B2, “Dihydropyridines and new uses thereof” (Synaptic Pharmaceutical Corporation, priority 1993, dated 2003).
Structures can show the parent of a compound that is named as a salt.

Key:
[1] = target: T1, α1A Human Adrenergic Receptor (Homo sapiens, UniProt P25100); assay: Radioligand binding, [3H]prazosin, cloned human α1A adrenergic receptor; conditions: [3H]prazosin; for Ki: read-out: pKi alpha-1 1a (converted)
T1 construct: The entire coding region of α1A (1719 bp); expressed in transfected cells
T1 sequence (P25100 1-572): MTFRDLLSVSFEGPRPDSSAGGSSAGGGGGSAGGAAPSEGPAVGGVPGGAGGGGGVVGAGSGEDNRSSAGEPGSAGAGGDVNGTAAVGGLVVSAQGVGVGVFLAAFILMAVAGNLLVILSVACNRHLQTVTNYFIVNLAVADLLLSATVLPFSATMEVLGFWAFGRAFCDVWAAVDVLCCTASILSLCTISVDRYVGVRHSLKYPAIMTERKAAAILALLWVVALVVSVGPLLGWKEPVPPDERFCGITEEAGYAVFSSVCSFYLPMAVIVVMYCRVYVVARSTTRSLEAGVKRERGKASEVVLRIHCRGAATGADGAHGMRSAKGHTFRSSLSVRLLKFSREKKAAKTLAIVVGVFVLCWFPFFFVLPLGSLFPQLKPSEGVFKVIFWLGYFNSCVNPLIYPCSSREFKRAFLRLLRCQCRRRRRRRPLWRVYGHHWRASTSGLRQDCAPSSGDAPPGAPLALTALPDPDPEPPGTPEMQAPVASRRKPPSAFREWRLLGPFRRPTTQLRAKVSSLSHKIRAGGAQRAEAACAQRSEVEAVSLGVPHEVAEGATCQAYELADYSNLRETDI
In short: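 Filter-bound radioactivity measured [3H]prazosin (0.5 nM) binding to membranes of LM(tk−) cells expressing the human α1A receptor after 20 min at 37° C. Phentolamine at 10 μM set nonspecific binding.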

[2] = target: T2, α2A receptor (Homo sapiens, UniProt P08913); assay: Competition binding, [3H]rauwolscine, human α2A receptor; conditions: [3H]rauwolscine; for Ki: read-out: pKi alpha-2 2a (converted)
T2 construct: host or cells: LM(tk-) cells, line L-α2A
T2 sequence (P08913 1-465): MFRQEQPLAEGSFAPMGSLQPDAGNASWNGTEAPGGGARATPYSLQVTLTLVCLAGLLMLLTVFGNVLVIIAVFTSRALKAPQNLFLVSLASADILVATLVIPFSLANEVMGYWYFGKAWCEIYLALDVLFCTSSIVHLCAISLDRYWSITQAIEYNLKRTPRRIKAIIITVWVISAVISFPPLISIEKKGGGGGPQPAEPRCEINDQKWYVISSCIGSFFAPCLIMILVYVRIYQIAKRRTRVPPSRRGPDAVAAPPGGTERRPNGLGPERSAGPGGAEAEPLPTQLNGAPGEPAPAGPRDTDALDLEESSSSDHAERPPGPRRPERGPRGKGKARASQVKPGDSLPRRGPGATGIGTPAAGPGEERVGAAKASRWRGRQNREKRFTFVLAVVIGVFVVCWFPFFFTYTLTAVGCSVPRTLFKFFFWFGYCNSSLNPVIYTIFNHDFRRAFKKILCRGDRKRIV
In short: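 Lysates of LM(tk−) cells stably expressing human α2A, α2B or α2C receptors in 25 mM glycylglycine pH 7.6. Equilibrium competition against 0.5 nM [3H]rauwolscine, with 10 μM phentolamine defining nonspecific binding. Bound ligand separated by GF/B filtration.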

[3] = target: T3, α1B Human Adrenergic Receptor (Homo sapiens, UniProt P35368); assay: Radioligand binding, [3H]prazosin, cloned human α1B adrenergic receptor; conditions: for Ki: read-out: pKi alpha-1 1b (converted)
T3 construct: The entire coding region of α1B (1563 bp); expressed in transfected cells
T3 sequence (P35368 1-520): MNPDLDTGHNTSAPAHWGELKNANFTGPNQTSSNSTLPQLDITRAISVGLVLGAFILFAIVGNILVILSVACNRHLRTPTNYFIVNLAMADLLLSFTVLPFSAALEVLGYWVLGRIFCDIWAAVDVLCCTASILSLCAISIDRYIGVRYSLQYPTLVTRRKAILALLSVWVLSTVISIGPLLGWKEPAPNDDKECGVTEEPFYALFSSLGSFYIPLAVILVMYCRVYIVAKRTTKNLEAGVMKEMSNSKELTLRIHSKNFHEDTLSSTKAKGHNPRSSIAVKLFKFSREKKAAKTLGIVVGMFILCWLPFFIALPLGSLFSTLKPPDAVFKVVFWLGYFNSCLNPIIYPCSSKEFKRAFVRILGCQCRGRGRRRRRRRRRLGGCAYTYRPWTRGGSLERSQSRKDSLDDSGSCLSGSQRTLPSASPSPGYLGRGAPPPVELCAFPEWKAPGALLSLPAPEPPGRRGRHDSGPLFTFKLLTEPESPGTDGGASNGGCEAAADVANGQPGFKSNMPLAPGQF
In short: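 [3H]prazosin (0.5 nM) binding was run for 20 min at 37° C in pH 7.5 Tris/MgCl2/ascorbate buffer on membranes of LM(tk−) cells stably expressing the cloned receptor. Filtration through GF/B ended the reaction; 10 μM phentolamine gave nonspecific binding.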

[4] = cloned human receptor in LM(tk-) cell membranes, SEM and n in lines below
[5] = LM(tk-) cell line L-α2A, SEM and n in lines below

| SMILES | pKi alpha-1 1a [1, 4] | pKi alpha-2 2a [2, 5] | pKi alpha-1 1b [3, 4] | Ki [1, 4] [nM] | Ki [2, 5] [nM] | Ki [3, 4] [nM] | other results |
| --- | --- | --- | --- | --- | --- | --- | --- |
| COC(=O)C1=C(C)NC(C)=C(C(=O)NCCCCN2CCC(c3ccccc3)(c3ccccc3)CC2)C1c1ccc([N+](=O)[O-])cc1.Cl.O (stereo not drawn) [Example 53, 1,4-Dihydro-3-methoxycarbonyl-2,6-dimethyl-4-(4-nitrophenyl)-5-{N-[4-(4,4-diphenylpiperidin-1-yl)butyl]}carboxamidopyridine hydrochloride hydrate] | 6.49 | 6.18 | 6.87 | – | – | – | – |
| COC(=O)C1=C(C)NC(C)=C(C(=O)NCCCN2CCc3cc(OC)c(OC)cc3C2)C1c1ccc([N+](=O)[O-])cc1 (stereo not drawn) [Example 57, 1,4-Dihydro-3-methoxycarbonyl-5-{N-[3-(1,2,3,4-tetrahydro-6,7-dimethoxyisoquinolin-2-yl)propyl]}carboxamido-2,6-dimethyl-4-(4-nitrophenyl)pyridine hydrochloride hydrate] | – | – | – | 1620 | 195 | 1230 | – |
| COc1cc2c(cc1OC)CN(CCCNC(=O)C1=C(C)NC(C)=C(C(N)=O)C1c1ccc([N+](=O)[O-])cc1)CC2 (stereo not drawn) [Example 58, 5-Carboxamido-1,4-dihydro-3-{N-[3-(1,2,3,4-tetrahydro-6,7-dimethoxyisoquinolin-2-yl)propyl]}carboxamido-2,6-dimethyl-4-(4-nitrophenyl)pyridine hydrochloride] | – | – | – | 3020 | 8.32 | 2290 | – |
| CC1=C(C(N)=O)C(c2ccc([N+](=O)[O-])cc2)C(C(=O)NCCCN2CCC(c3ccccc3)CC2)=C(C)N1 (stereo not drawn) [Example 60, 5-Carboxamido-1,4-dihydro-2,6-dimethyl-4-(4-nitrophenyl)-3-{N-[3-(4-phenylpiperidin-1-yl)propyl]}carboxamidopyridine] | – | – | – | 200 | 5.5 | 77.6 | – |
| CC1=C(C(N)=O)C(c2cccc([N+](=O)[O-])c2)C(C(=O)NCCCN2CCC(c3ccccc3)CC2)=C(C)N1 (stereo not drawn) [Example 62] | – | – | – | 339 | 24.5 | 316 | – |
| CC1=C(C(=O)NCCCN2CCC(c3ccccc3)CC2)C(c2ccc([N+](=O)[O-])cc2)c2c([nH]c(=O)[nH]c2=O)N1 (stereo not drawn) [Example 63, 1,4-Dihydro-6-methyl-4-(4-nitrophenyl)-5-{N-[3-(4-phenylpiperidin-1-yl)propyl]}carboxamido-[2,3, d]uracilylpyridine] | – | – | – | 44.7 | 955 | 18.6 | – |
| COC(=O)C1=C(C)NC(c2ccoc2)=C(C(=O)NCCCN2CCC(c3ccccc3)CC2)C1c1ccc([N+](=O)[O-])cc1 (stereo not drawn) [Example 65, 2-(Furan-3-yl)-1,4-dihydro-5-methoxycarbonyl-6-methyl-4-(4-nitrophenyl)-5-{N-[3-(4-phenylpiperidin-1-yl)propyl]}carboxamidopyridine hydrochloride hydrate] | – | – | – | 129 | 200 | 57.5 | – |
| CC1=C(C(N)=O)C(c2ccc([N+](=O)[O-])cc2)C(C(=O)NC2CCN(Cc3ccccc3)CC2)=C(c2ccoc2)N1.Cl.O (stereo not drawn) [Example 66] | 5.45 | 5.53 | 5.36 | – | – | – | – |
| COc1cc2c(c(OC)c1)CCN(CCCNC(=O)C1=C(c3ccoc3)NC(C)=C(C(N)=O)C1c1ccc([N+](=O)[O-])cc1)C2.Cl.O (stereo not drawn) [Example 67] | 5.96 | 6.45 | 6.18 | – | – | – | – |
| CCC1=C(C(=O)NCCCN2CCC(c3ccccc3)CC2)C(c2ccc([N+](=O)[O-])cc2)C(C(=O)OC)=C(C)N1 (stereo not drawn) [Example 74, 2-Ethyl-1,4-dihydro-5-methoxycarbonyl-6-methyl-4-(4-nitro)phenyl-3-(N-(3-(4-phenylpiperidin-1-yl)propyl)) carboxamidopyridine hydrochloride hydrate] | – | – | – | 58.9 | 58.9 | 19.1 | – |
| CCC1=C(C(=O)NC2CCN(Cc3ccccc3)CC2)C(c2ccc([N+](=O)[O-])cc2)C(C(=O)OC)=C(C)N1 (stereo not drawn) [Example 75, 2-Ethyl-1,4-dihydro-5-methoxycarbonyl-6-methyl-4-(4-nitro)phenyl-3-(N-(N-phenylmethyl)piperidin-4-yl)carboxamidopyridine hydrochloride] | – | – | – | 4370 | 2880 | 3890 | – |
| CCC1=C(C(=O)NCCCN2CCc3cc(OC)c(OC)cc3C2)C(c2ccc([N+](=O)[O-])cc2)C(C(N)=O)=C(C)N1.Cl.O (stereo not drawn) [Example 76, 5-Carboxamido-2-ethyl-1,4-dihydro-3-(N-(3-(1,2,3,4-tetrahydro-6,7-dimethoxyisoquinolin-2-yl)propyl)) carboxamido-6-methyl-4-(4-nitro)phenylpyridine hydrochloride hydrate] | 5.89 | 6.96 | 5.88 | – | – | – | – |
| CCC1=C(C(=O)NCCCCN2CCC(c3ccccc3)CC2)C(c2ccc([N+](=O)[O-])cc2)C(C(N)=O)=C(C)N1.Cl.O (stereo not drawn) [Example 77, 5-Carboxamido-2-ethyl-1,4-dihydro-6-methyl-4-(4-nitro)phenyl-3-(N-(4-(4-phenylpiperidin-1-yl)butyl))carboxamidopyridine hydrochloride hydrate] | 6.83 | 6.95 | 7.16 | – | – | – | – |
| COC(=O)C1=C(C)NC(c2ccccc2)=C(C(=O)NCCCN2CCC(c3ccccc3)CC2)C1c1ccc([N+](=O)[O-])cc1.Cl (stereo not drawn) [Example 79, 1,4-Dihydro-5-methoxycarbonyl-6-methyl-4-(4-nitro)phenyl-2-phenyl-3-(N-(3-(4-phenylpiperidin-1-yl)propyl)) carboxamidopyridine hydrochloride] | 6.99 | 6.84 | 7.33 | – | – | – | – |
| CCOC(=O)C1=C(CNCCCN2CCC(c3ccccc3)(c3ccccc3)CC2)NC(C)=C(C(=O)OC)C1c1ccc([N+](=O)[O-])cc1.Cl.O (stereo not drawn) [Example 90, 3-Ethoxycarbonyl-1,4-dihydro-5-methoxycarbonyl-6-methyl-4-(4-nitro)phenyl-2-(N-(3-(4,4,-diphenylpiperidin-1-yl)propyl)amino)methylpyridine, hydrochloride hydrate] | – | – | – | – | – | – | pKi alpha-1 1a ([1]; cloned human α1A receptor, LM(tk−) cell membranes): 6.52; pKi alpha-2 2a ([2]; human α2A receptor, LM(tk−) cells): 6.13; pKi alpha-1 1b ([3]; cloned human α1B receptor, LM(tk−) cell membranes): 6.87 |
